Values quoted from earlier work in publication PMC5574958, “Radiosynthesis and Preclinical Evaluation of [^18F]F-DPA, A Novel Pyrazolo[1,5a]pyrimidine Acetamide TSPO Radioligand, in Healthy Sprague Dawley Rats” (Molecular Imaging and Biology, 2017).

Target: TSPO
Conditions: read-out: K i (TSPO affinity); cited from earlier work

CCN(CC)C(=O)Cc1c(-c2ccc([18F])cc2)nn2c(C)cc(C)nc12 [[^18F]F-DPA]
Ki: 1.7 nM
